This is an account of results in patent publication US20260335314A1, “CRYSTALLINE SALTS OR AMORPHOUS FORMS OF 2-((1H-PYRAZOL-3-YL)METHYL)-6-((6-AMINOPYRIDIN-2-YL)METHYL)-4-METHYL-4,6-DIHYDRO -5H-THIAZOLO[5',4':4,5]PYRROLO[2,3-D]PYRIDAZIN-5-ONE” (Agios Pharmaceuticals, Inc., priority 2023, published 2026).

Values after ≈ are worked out from the molar mass of the structure shown.

Data set [1] is described as follows: Pharmacokinetics / absolute bioavailability in male Sprague Dawley rats. Particulars: for AUC(0-inf): rat; for AUC(0-inf) / AUCinf: plasma. It is filed as in vivo. As for the experimental part:
Twenty-one (21) male Sprague Dawley rats (purchased from Shanghai Laboratory Animal Center Co., Ltd., Shanghai, China) were randomized into 7 groups (3 animals per group). The animals fasted overnight, the forms of Compound 1 shown in Table 7 were administered by oral gavage, and the animals were fed 4 hours post-dose.
Blood was serially collected from each animal at 0 (pre-dose), 0.083, 0.25, 0.5, 1, 2, 4, 8, and 24 h post-dose. For each collection, the animal was restrained manually, and approximately 150 μL of blood sample was collected via the tail vein into K2EDTA tubes. Plasma samples were stored at approximately −70° C. until analysis.
To enable the calculation of absolute bioavailability, Compound 1 was formulated as a solution in 10% N-methyl-2-pyrrolidone, 10% Solutol HS 15, and 80% saline and administered at 1 mg/kg as intravenous (IV) bolus dose to a separate group of male Sprague Dawley rats, and blood samples were collected at similar timepoints to those shown above. Further, plasma samples were obtained from the collected samples and stored at approximately −70° C. until analysis.
The concentration of Compound 1 in the plasma samples was determined by LC-MS/MS analysis.
A 20 μL aliquot of each plasma sample was mixed with 200 μL of acetonitrile containing glipizide as an internal standard (40 ng/mL). The resulting mixture was vortexed at 1500 rpm for 2 min and centrifuged at 5800 rpm for 10 min. A 1 μL sample from the supernatant was injected into LC-MS/MS.
LC-MS/MS analysis was conducted on a UPLC/MS-MS (API 6500+) system under the conditions outlined in Table 8
The absolute bioavailability of each form of Compound 1 was determined by dividing the AUCinf of the form in question by the AUCinf obtained historical data by IV administration of Compound 1.

Data set [2] can be described thus: Dynamic vapor sorption (moisture uptake). It counts as physicochemical. The note with it: 25° C. The method, then: Dynamic Vapor Sorption (DVS) was carried out using a TA Instruments Q5000 Dynamic Vapor Sorption analyzer. The instrument was calibrated with standard weights and a sodium bromide standard for humidity. Approximately 10-25 mg of sample was loaded into a metal-coated quartz pan for analysis. […] The movement from one step to the next occurred either after satisfying the equilibrium criterion of 0.01% weight change or, if the equilibrium criterion was not met, after one hour. The percent weight change values were calculated using Microsoft Excel®.

Data set [3] in a line: XRPD of solid residue from solubility samples (salt disproportionation). It is filed as physicochemical. The note with it: FaSSIF residue. As for the experimental part:
(§1) At each time point, the solution was analyzed by HPLC and residue was vacuum dried and analyzed by XRPD. The pH of the solution was measured at 24 hours.
(§2) Kinetic solubility was determined in biorelevant media. At each time point, the solution was analyzed by HPLC. The solid residue was analyzed by XRPD at selected time points. The pH of the solution was measured at 24 hours.

A short description of data set [4]: pH solubility in buffers. Particulars: for pH (24 h): pH of solution at 24 h; for solubility / solubility at 2 h: 37 °C. It counts as physicochemical. The method, then: (§3) Solubility samples were prepared by weighing about 10 mg of each salt and adding 1 mL of media and vortexed briefly to obtain suspensions. […] For such instances, the solubility is calculated as greater than (>).
(§4) The sample vials were capped and wrapped in aluminum foil, and placed on a shaker at 37° C. The shaker was set at about 100 rpm and vials were removed at specified time points. The vials were observed, and the supernatants were transferred to Eppendorf tubes and centrifuged at 3K for 10 minutes. The clear supernatants were transferred to HPLC vials. The samples were diluted prior to HPLC analysis using the dilution media by 2× or used without dilution. pH was measured of the 24 hour timepoint after centrifugation using a micro pH probe.
(§5) • pH 2 buffer USP: Mixed 50 mL of 0.2M potassium chloride and 13 mL 0.2M HCl, diluted to 200 mL with water. • pH 4.5 buffer USP: 5.44 g of potassium dihydrogen phosphate was diluted to 1000 mL with water. • pH 6.8 buffer USP: Mixed 50 mL of 0.2M potassium phosphate and 22.4 mL 0.2M sodium hydroxide. Diluted with water to 200 mL. • SGF: 2.0109 g of NaCl was dissolved in water, added 7 mL of conc. HCl and diluted to 1 L. • FeSSIF: 4.0321 g of NaOH and 11.8726 g of NaCl were dissolved in water, added 8.65 mL of glacial acetic acid, adjusted the pH to 5.0 and diluted to 1 L. • FaSSIF: 0.4247 g of NaOH, 3.9548 g of sodium phosphate monobasic monohydrate and 6.1900 g of NaCl were dissolved in water, adjusted the pH to 6.5 and diluted to 1 L.
as §1

Data set [5] is described as follows: Kinetic solubility in biorelevant media. It is filed as physicochemical. As for the experimental part:
as §3, §4
as §5, with “adjusted the pH to 5.0 and diluted to 1 L. • FaSSIF:” left out
as §2

[6] abbreviates: from 5% to 95% relative humidity.
[7] abbreviates: from 2% to 95% relative humidity.

As for `Cn1c2nc(Cc3cc[nH]n3)sc2c2cnn(Cc3cccc(N)n3)c(=O)c21` [Compound 1, 2-((1H-pyrazol-3-yl)methyl)-6-((6-aminopyridin-2-yl)methyl)-4-methyl-4,6-dihydro-5H-thiazolo[5′,4′:4,5]pyrrolo[2,3-d]pyridazin-5-one], in data set [1] (IV administration (historical), 1 mg/kg, reference), the “Absolute % F” value came to 100%. For the same compound, in data set [1] (iv, 1 mg/kg, IV bolus (historical)), the total exposure AUC(0-inf) came out at 1560 ng·h/mL.

Regarding `Cn1c2nc(Cc3cc[nH]n3)sc2c2cnn(Cc3cccc(N)n3)c(=O)c21` [Form B], the “moisture uptake (DVS)” value in data set [2] (setting [6]) is on record as “about 0.9%”. Further, in data set [3], the “salt disproportionation by XRPD” value was “some salt remained”. Also, the “absolute bioavailability, comparison with other forms” value in data set [1] (oral gavage, 10 mg/kg) is reported as “higher than the measured bioavailability of the other forms of Compound 1”. For the same compound, in data set [1] (oral gavage, 10 mg/kg, fasted overnight), the AUCinf was found to be 10846 ng·h/mL. Moreover, the “Absolute % F” value in data set [1] (oral gavage, 10 mg/kg, vs historical IV AUCinf, 10 mg/kg) is 70%. The “dissolution in 0.1N HCl” value in data set [4] (0.1N HCl) is reported as “dissolved instantly”. Besides, the “pH (24 h)” value in data set [4] (0.1 N HCl) was determined as 1.44; in data set [4] (pH 2 (USP)), 2.26; in data set [4] (pH 4.5 (USP)), 4.01; in data set [4] (pH 6.8 (USP)), 5.09; in data set [5] (FaSSIF pH 6.5, pH of solution at 24 h), 3.39; in data set [5] (FeSSIF pH 5.0, pH of solution at 24 h) it was 4.79. In addition, in data set [5] (SGF pH 1.2, pH of solution at 24 h), the “pH (24 h)” value is listed as 1.0. The solubility in data set [4] (0.1 n hcl, dissolved instantly, estimated by adding 100 uL aliquots, read-out: solubility) is over 16700 µg/mL; in data set [4] (pH 2 (USP), 2 h, 120 min), 2590 µg/mL (≈ 6600 µM); in data set [4] (pH 2 (USP), 24 h, 1440 min) it was 2400 µg/mL (≈ 6120 µM); in data set [4] (pH 4.5 (USP), 24 h, 1440 min), 270 µg/mL (≈ 688 µM); in data set [4] (pH 6.8 (USP), 24 h, 1440 min), 10 µg/mL (≈ 25.5 µM); in data set [5] (FaSSIF pH 6.5, 10 min, 37 °C, 10 min) it was 0.38 (suspect) mg/mL. The solubility is given as 0.36 (suspect) mg/mL in data set [5] (FaSSIF pH 6.5, 30 min, 37 °C, 30 min); 0.24 mg/mL (≈ 612 µM) in data set [5] (FaSSIF pH 6.5, 1 h, 37 °C, 60 min); 0.57 mg/mL (≈ 1450 µM) in data set [5] (FaSSIF pH 6.5, 2 h, 37 °C, 120 min); 1.40 (suspect) mg/mL in data set [5] (FaSSIF pH 6.5, 4 h, 37 °C, 240 min); 0.70 mg/mL (≈ 1780 µM) in data set [5] (FaSSIF pH 6.5, 24 h, 37 °C, 1440 min); 0.08 mg/mL (≈ 204 µM) in data set [5] (FeSSIF pH 5.0, 1 h, 37 °C, 60 min). In addition, the solubility in data set [5] (sgf, pH 1.2, SGF pH 1.2, 37 °C, dissolved instantly, from total volume of media added, read-out: solubility) was over 10 mg/mL. The solubility at 2 h is 70 µg/mL (≈ 178 µM) in data set [4] (ph 4.5 buffer (usp), pH 4.5, pH 4.5 (USP), 2 h); 30 µg/mL (≈ 76.4 µM) in data set [4] (ph 6.8 buffer (usp), pH 6.8, pH 6.8 (USP), 2 h); 110 µg/mL (≈ 280 µM) in data set [5] (fessif, pH 5, FeSSIF pH 5.0, 2 h, 37 °C). In addition, the solubility at 10 min in data set [5] (fessif, pH 5, FeSSIF pH 5.0, 10 min, 37 °C) stood at 340 µg/mL (≈ 866 µM). The solubility at 0.5 h in data set [5] (fessif, pH 5, FeSSIF pH 5.0, 30 min, 37 °C) came out at 130 µg/mL (≈ 331 µM). This compound also displayed a solubility at 4 h in data set [5] (fessif, pH 5, FeSSIF pH 5.0, 4 h, 37 °C) of 100 µg/mL (≈ 255 µM). In data set [5] (fessif, pH 5, FeSSIF pH 5.0, 24 h, 37 °C), this compound yielded a solubility at 24 h of 60 µg/mL (≈ 153 µM). The “dissolution in SGF” value in data set [5] (simulated gastric fluid (SGF)) is “dissolved instantly”.

As for `Cn1c2nc(Cc3cc[nH]n3)sc2c2cnn(Cc3cccc(N)n3)c(=O)c21` [Form D-1], the “moisture uptake (DVS)” value in data set [2] (setting [6]) was “about 2.8%”.

As for `Cn1c2nc(Cc3cc[nH]n3)sc2c2cnn(Cc3cccc(N)n3)c(=O)c21` [Form D-2], the “moisture uptake (DVS)” value in data set [2] (setting [7]) was “about 1.1%”.

As to `Cn1c2nc(Cc3cc[nH]n3)sc2c2cnn(Cc3cccc(N)n3)c(=O)c21` [Form E], in data set [2] (setting [6]), the “moisture uptake (DVS)” value is on record as “about 1.3%”. Moreover, in data set [1] (oral gavage, 10 mg/kg, fasted overnight, listed as Free Base Hydrate Form E (wet milled)), the AUCinf is 7378 ng·h/mL. In addition, the “Absolute % F” value is 45% in data set [1] (oral gavage, 10 mg/kg, vs historical IV AUCinf, listed as Free Base Hydrate Form E (Unmilled), 10 mg/kg) and 47% in data set [1] (oral gavage, 10 mg/kg, vs historical IV AUCinf, listed as Free Base Hydrate Form E (wet milled), 10 mg/kg). The same compound displayed a total exposure AUC(0-inf) in data set [1] (po, 10 mg/kg, oral gavage, fasted overnight) of 6960 ng·h/mL.

Regarding `Cn1c2nc(Cc3cc[nH]n3)sc2c2cnn(Cc3cccc(N)n3)c(=O)c21.O=C(O)C(O)C(O)C(=O)O` [Form I], the “moisture uptake (DVS)” value in data set [2] (setting [7]) was “about 10.5%”.

As a reminder, the AUC(0-inf) is total exposure, with the tail of the curve extrapolated. A higher AUC(0-inf) goes with more exposure.
